Assay results from patent US10556926B2, “Synthetic artificial peptides with antimicrobial effect” (priority 2014, dated 2020).
Read-outs that look alike come from different tables or passages of the source. No end group written: not given here.

Tests used:
[1] = tested on: E. coli ML-35p; assay: Kinetics of permeabilization of the inner bacteria membrane (ONPG); assay type: cell-based, Escherichia coli
Protocol: The ability of the antimicrobial peptides for the respective permeabilization of the outer and inner bacteria membrane was tested by way of example on E. coli ML-35p (made available by Dr. R. E. Lehrer, Center for Health Sciences, Los Angeles, Calif., USA). The peptides were incubated in serial dilution with E. coli ML-35p and the time-dependent release of cell-internal components was measured in a slightly modified protocol according to Ericsson et al. (2002). For this purpose, the bacteria were cultured in Luria-Bertani (LB) medium with 100 μg/ml ampicillin (Fluka, Taufkirchen, Germany) until reaching an optical density of 0.4 at 600 nm wavelength. Then, the cells were washed three times by centrifugation at 4000 g for 1 min and subsequent up-take in 10 mM HEPES buffer pH 7.2. Finally, the cells were diluted to an optical density of 0.3 at 600 nm wavelength. To measure the permeabilization of the outer membrane, nitrocefin (Merck, Darmstadt, Germany) was diluted in HEPES buffer to a concentration of 60 μg/ml. The antimicrobial peptides were diluted in HEPES buffer to an end concentration of 12 μM, 24 μM, 48 μM and 96 μM end concentration. In the next step, 50 μl of nitrocefin were admixed with 50 μl of antimicrobial peptide and 50 μl of bacteria suspension such that an end concentration of 20 μg/ml of nitrocefin, 4 μM to 32 μM of antimicrobial peptide and bacteria with an optical density of 0.1 to 600 nm were present. The samples were mixed and the absorption at 500 nm wavelength was measured directly over a period of at least 90 min at 37° C. with regular shaking in a FLUOstar omega Microplate Reader (BMG Labtech, Ortenberg, Germany). The investigation of the permeabilization of the inner membrane was carried out in the same way except that instead of the nitrocefin accordingly 0-nitrophenyl-beta-D-galactoside (ONPG, Sigma-Aldrich) in an end concentration of 100 μg/ml was used and the absorption change was determined at a wavelength of 420 nm. The control used was samples without antimicrobial peptide, the positive control used for the membrane permeabilization was polymyxin B (Sigma-Aldrich) in an end concentration of 5 μM. For the data evaluation, firstly the measurement values of the corresponding negative controls were deducted from the measurement values of the samples, and the difference was then divided by the corresponding measurement values of the permeabilization control. Then, a graphical evaluation was carried out, the calculated values being plotted against the peptide concentration and being fitted with the help of the Origin Pro 8.1 G Software (OriginLab) according to a sigmoidal model. As representative examples, FIGS. 4 and 5 show the graphical evaluation for the kinetic investigation of the permeabilization of the outer E. coli bacteria membrane for the peptides N4 (FIG. 4) and O1 (FIG. 5).
As comparison parameter between the peptides, the times were ascertained from this at which 50% of the final signal level was reached. For this purpose, the equation with the percentage membrane permeabilization y, the time x in minutes, the lower plateau A1, the upper plateau A2, the point of inflection Log X0 and the Hill incline p
[formula] was used. The calculation of the parameters A1, A2, Log X0 and p was performed by the program by reference to the compensating curve. Further resolution of equation 5.1 for the case y=50 then produced for x the desired time at which the half-maximum signal level was reached.

[2] = tested on: human histiocytic lymphoma cell line U937; assay: Long-term growth inhibition, minimum toxic concentration (MTC)
Method in brief: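 U937 cells (5·10^4/ml final, RPMI 1640 + 2 mM glutamine + 10% FCS) exposed to peptides at 0.25–64 µM for 2 h at 37 °C, 5% CO2, then cultured at least four further days. MTC taken as the lowest peptide concentration giving complete growth suppression after four days.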

[3] = U937, complete suppression of cell growth after four days

| Compound | Inner membrane, time to 50% of final signal ([1]; 4 μM peptide) | Inner membrane, time to 50% of final signal ([1]; 8 μM peptide) | Inner membrane, time to 50% of final signal ([1]; 16 μM peptide) | Inner membrane, time to 50% of final signal ([1]; 32 μM peptide) | Toxicity MTC (minimum toxic concentration) [2, 3] | Toxicity MTC (minimum toxic concentration) [2] |
| --- | --- | --- | --- | --- | --- | --- |
| ILPWKWPWWPWRR [Indolicidin] | >90 min | >90 min | >90 min | >90 min | >64 µM |  |
| KRKRKILILIKRK-OH [N1] | >90 min | >90 min | 38 min | 32 min |  | 32 µM |
| KILILIKRK-OH [N4] | >90 min | >90 min | >90 min | >90 min |  | >64 µM |
| CC[C@H](C)[C@H](NC(=O)CN)C(=O)NCC(=O)N[C@@H](C)C(=O)N[C@H](C(=O)N[C@@H](CC(C)C)C(=O)N[C@@H](CCCCN)C(=O)N[C@H](C(=O)N[C@@H](CC(C)C)C(=O)N[C@H](C(=O)N[C@H](C(=O)NCC(=O)N[C@@H](CC(C)C)C(=O)N1CCC[C@H]1C(=O)N[C@@H](C)C(=O)N[C@@H](CC(C)C)C(=O)N[C@H](C(=O)N[C@@H](CO)C(=O)N[C@@H](Cc1c[nH]c2ccccc12)C(=O)N[C@H](C(=O)N[C@@H](CCCCN)C(=O)N[C@@H](CCCNC(=N)N)C(=O)N[C@@H](CCCCN)C(=O)N[C@@H](CCCNC(=N)N)C(=O)N[C@@H](CCC(N)=O)C(=O)N[C@@H](CCC(N)=O)C(N)=O)[C@@H](C)CC)[C@@H](C)CC)[C@@H](C)O)[C@@H](C)O)C(C)C)C(C)C [Melittin] | 18 min | 12 min | 9 min | 6 min | 2.0 µM |  |
| MPRRRRSSSRPVRRRRRPRVSRRRRRRGGRRR (Protamine) | >90 min | >90 min | >90 min | >90 min |  | 16 µM |
